From patent publication US20190060298A1, “NEW DRUG FOR THE TREATMENT AND/OR PREVENTION OF DEPRESSIVE DISORDERS” (SORBONNE UNIVERSITE, priority 2013, published 2019)

How the values were obtained:
[1] = tested on: glutathione peroxidase (GPx); assay: Glutathione peroxidase activity in hippocampus; type: in vivo, Sprague-Dawley rats; details: 288 μmol/kg/day, 15 days from D11; D31
Experimental: The right hippocampus was homogenized in ice-cold buffer (Tris-HCl 50 mM pH 7.5, 150 mM NaCl, 1 mM EDTA) and used for TBARS and glutathione peroxidase (GPx) assays.
For the TBARS assay, protease inhibitors (50 μl/ml), DOC (1%), SDS (0.1%) and Triton® X-100 (0.5%) were added immediately in ice-cold buffer. For the GPx assay, 0.1 M dithiothreitol was added immediately in ice-cold buffer. The homogenates were centrifuged and the supernatants were retained for analysis. Lipid peroxidation was assessed by measuring TBARS formation with a commercial assay kit (Cayman Chemical, Ann Arbor, Mich., USA), in accordance with the manufacturer's instructions. TBARS concentration was calculated from an MDA standard curve and normalized. Total GPx activity in the homogenate was measured in accordance with the kit manufacturer's instructions (Cayman Chemical, Ann Arbor, Mich., USA). GPx specific activity is expressed as nmoles of NADPH consumed per minute per mg of hippocampal tissue. No difference in hippocampal weight was observed between defeated, vulnerable, non-vulnerable and control animals.
(§1) Tempol (4-hydroxy-2,2,6,6-tetramethylpiperidine 1-oxyl), which was administered at a dose of 288 μmol/kg/day [Sigma-Aldrich, St Louis, Mo., USA]), was dissolved in distilled water and delivered via ALZET osmotic mini-pumps (2002, Charles River Laboratories, France). […]

CA3 neurons = assay: Golgi staining, hippocampal CA3 neuron morphology; type: in vivo, Sprague-Dawley rats; details: 288 μmol/kg/day, 15 days
Experimental: At D11 and D31, unperfused brains were rapidly removed and processed with the FD Rapid Golgistain kit (FD NeuroTechnologies), as previously described by Blugeot et al. (2011). Histological quantification: for each rat, the total dendrite length of apical CA3 dendritric branches was measured for selected neurons with AxioVision 4.7 software and a Zeiss Imager M1 microscope. 3-5 hippocampal neurons per rat are selected for measurement by an investigator blind to the origin of the experimental animal. Dendritic tracing was quantified by Sholl analysis (Sholl, 1953). The number of intersections between the dendrites and the concentric circles was counted and plotted as a function of the distance from the soma. The density of dendritic spines was estimated by counting the number of apical dendritic spines in 3-4 segments of 15 μm located in the stratum radiatum, at 1000× resolution. Spine density was expressed as the number of spines per 15 μm length of apical dendrite.
(§2) Tempol (4-hydroxy-2,2,6,6-tetramethylpiperidine 1-oxyl), which was administered at a dose of 288 μmol/kg/day [Sigma-Aldrich, St Louis, Mo., USA]), was dissolved in distilled water and delivered via ALZET osmotic mini-pumps (2002, Charles River Laboratories, France). Tempol- or distilled water-filled pumps were implanted subcutaneously on the back of intruder rats under light anesthesia with isofluorane, 11 days after completion of the social-defeat procedure (D11), and were left in place for 15 days.

Sprague-Dawley rats [2] = assay: Forced swimming test after sensitization paradigm; type: in vivo; details: V animals; TEMPOL 288 μmol/kg/day 15 days from D11; after three weeks of CMS applied at D31
Experimental: (§3) Sprague-Dawley rats were subjected to chronic social defeat (CSD) and then, four weeks later, to three weeks of chronic mild stress (SSP rats). The chronic mild stress protocol (CMS) was performed as previously described (see Blugeot et al., 2011). The control rats were control intruders (not subjected to CSD) not exposed to the three weeks of CMS (C rats).
(§4) The CMS protocol is derived from that described by Willner et al. (1992). Briefly, various mild stresses were applied every day, over a period of three weeks. Briefly, from Monday to Friday, every morning, animals were placed in a small cage (10×16×15 cm) for 1 hour. In the afternoon, they were shaken for 10 min (Monday and Thursday), placed in a small cage containing water (2 cm high, Tuesday) or placed in another cage for 4 hours (Wednesday and Friday). Every night, the cage was inclined (45°, Tuesday and Thursday) or contained wet bedding (Wednesday and Friday). On Saturday and Sunday, the rats were subjected to a reversed dark/light cycle for 30 min, every three hours.
Four days after the end of SSP paradigm (D52), FST experiments were performed between 08:00 and 11:30. Experiments were performed as described by Becker et al. (2008, Mol. Psychiatry 13, 1079) and Blugeot et al. (2011). Immobility time was measured with a stopwatch. […] A trained experimenter blind to the treatment observed the animals and measured immobility time. […]

Sprague-Dawley rats [3] = assay: Sweet water consumption after sensitization paradigm; type: in vivo; details: V animals; TEMPOL 288 μmol/kg/day 15 days from D11; after three weeks of CMS applied at D31
Experimental: as §3, §4
Experiments were performed as described by Becker et al. (2008) and Blugeot et al. (2011). Sucrose and water intakes were measured daily at 9:00 am. Weekly sweet water consumption was expressed as a percentage of control values (measured one week before the beginning of the conditioning sessions). Sweet water consumption indicated a preference for sucrose. […]

HPA axis = assay: Activity of the HPA (corticotropic) axis; type: in vivo, Sprague-Dawley rats; details: vulnerable animals vs vulnerable animals treated with vehicle
Experimental: as §2
When the rats were killed (at D57), blood from trunk vessels was collected into chilled tubes and corticosterone was quantified by RIA (ICN Biomedicals, Orsay, France), using [125I]corticosterone as a radiotracer (Andre et al., 2005). Adrenal glands were removed, dissected free of adhering fat, and weighed. Organ weights are expressed relative to body weights (mg gland/100 g body weight). Rats were decapitated at midday in a quiet separate room, one by one, with the bench cleaned between rats.

BDNF = assay: Serum BDNF assay; type: in vivo, Sprague-Dawley rats; details: vulnerable animals vs vulnerable animals treated with vehicle
Experimental: Blood samples (200 μl) were collected from conscious rats at various time points (D-4, D5, D11, D31 at midday). These samples were taken from the tail vein and were collected in Eppendorf tubes. The samples were centrifuged to separate off the serum, which was stored at −20° C. until BDNF analysis. BDNF concentrations were determined at a dilution of 1:25, with a commercial BDNF assay (Promega Corporation), in 96-well plates (Corning Costar® EIA plate), according to the manufacturer's instructions.
Another serum BDNF was carried out. Blood samples (200 μl) of awake rats were collected at different time-points (D-4, D9, D35, D57 at midday) from the vein of the tail into eppendorf tubes. After centrifugation, serum was separated and stored at −20° C. until analysis for BDNF. BDNF concentrations were determined at dilution of 1:25 with a commercial BDNF assay (Promega Corporation), in 96-well plates (Corning Costar® EIA plate), according to the manufacturer's instructions.
as §1

In the case of `CC1(C)CC(O)CC(C)(C)N1[O]` [TEMPOL, 4-hydroxy-2,2,6,6-tetramethylpiperidin-1-oxyl], the “glutathione peroxidase (GPx) activity” value [1] is reported as “mild effect”, the “dendritic trees (total apical dendrite length of CA3 neurons)” value (CA3 neurons; NV and V animals, D31) is reported as “fully restored” and the “spine density (CA3 dendritic spines)” value (CA3 neurons; NV and V animals, D31) is reported as “fully restored”. The “total length of hippocampal neurons” value (CA3 neurons; non-vulnerable and control animals vs vehicle-treated) was “tends to increase”, the “immobility time in the forced swimming test” value (Sprague-Dawley rats [2]) was “prevented the increase in immobility time” and the sweet water consumption (Sprague-Dawley rats [3]) was “prevented”. The adrenal gland weight (HPA axis) was “prevented the increase”, the corticosterone levels (HPA axis) was “prevented the increase of corticosterone levels” and the “serum BDNF levels” value (BDNF) was “induced the recovery of serum BDNF levels”.
